Measurements published in patent US11504382B2, “Tricyclic inhibitors of Hepatitis B virus” (Antios Therapeutics, Inc., priority 2018, dated 2022).
Where two headings read alike, the source gives them in different places.

Test system: HBV
Test: HBV inhibition assay in HepAD38 cells (extracellular HBV DNA by direct qPCR)
Format: cell-based, Hepatitis B virus
Settings: 96 hours; for EC50: 8-point dose-response curve, read-out: HBV inh EC50; for inhibition at 0.1 µM / Anti HBV Activity (conc μM): 0.1 μM
[1] = Hepatitis B virus, relative to non-treated reference, read-out: Anti HBV Activity (conc μM)
[2] = relative to non-treated reference

Row | SMILES | EC50 (Hepatitis B virus) | also measured
1 | Cn1cc2c(c1C(=O)Nc1ccc(F)c(F)c1)OC[C@@H]1CCC[C@H]1NS2(=O)=O [Example E8, (5aR,8aR)—N-(3,4-difluorophenyl)-2-methyl-5a,6,7,8,8a,9-hexahydro-2H,5H-cyclopenta[f]pyrrolo[3,4-b][1,4,5]oxathiazocine-1-carboxamide 4,4-dioxide] | < 1000 nM | 
2 | Cn1cc2c(c1C(=O)Nc1cc(F)c(F)c(F)c1)OCC1CN(c3ncc(F)cn3)CC1NS2(=O)=O (stereo not drawn) [Example E75, cis-2-(5-fluoropyrimidin-2-yl)-7-methyl-N-(3,4,5-trifluorophenyl)-2,3,3a,4,10,10a-hexahydro-1H,7H-dipyrrolo[3,4-b:3′,4′-f][1,4,5]oxathiazocine-8-carboxamide 5,5-dioxide] | < 1000 nM | inhibition at 0.05 µM (Hepatitis B virus, 0.05 μM, relative to non-treated reference, read-out: Anti HBV Activity (conc μM)): > 50%
3 | Cc1noc(N2C[C@H]3COc4c(cn(C)c4C(=O)Nc4cc(F)c(F)c(F)c4)S(=O)(=O)N[C@H]3C2)n1 [Example E117, (3aR,10aR)-7-methyl-2-(3-methyl-1,2,4-oxadiazol-5-yl)-N-(3,4,5-trifluorophenyl)-2,3,3a,4,10,10a-hexahydro-1H,7H-dipyrrolo[3,4-b:3′,4′-f][1,4,5]oxathiazocine-8-carboxamide 5,5-dioxide] | < 1000 nM | 
4 | Cn1cc2c(c1C(=O)Nc1cc(F)c(F)c(F)c1)OCC1CN(C(=O)c3c[nH]c(=O)cn3)CC1NS2(=O)=O (stereo not drawn) [Example E56, cis-7-methyl-2-(5-oxo-4,5-dihydropyrazine-2-carbonyl)-N-(3,4,5-trifluorophenyl)-2,3,3a,4,10,10a-hexahydro-1H,7H-dipyrrolo[3,4-b:3′,4′-f][1,4,5]oxathiazocine-8-carboxamide 5,5-dioxide] |  | inhibition at 0.1 µM [1]: < 50%
5 | Cn1cc2c(c1C(=O)Nc1ccc(F)c(F)c1)OCC1CCCC1NS2(=O)=O (single isomer, unassigned) [Example E34, N-(3,4-difluorophenyl)-2-methyl-5a,6,7,8,8a,9-hexahydro-2H,5H-cyclopenta[f]pyrrolo[3,4-b][1,4,5]oxathiazocine-1-carboxamide 4,4-dioxide (Chiral 5aS,8aR or 5aR,8aS - Stereochemistry unknown)] |  | Anti HBV Activity (conc μM) [2]: B (0.1) (HBV inhibition less than 50% at the concentration indicated in the table)
6 | Cc1nnc(C(=O)N2C[C@@H]3COc4c(cn(C)c4C(=O)Nc4ccc(F)c(C)c4)S(=O)(=O)N[C@H]3C2)o1 (single isomer, unassigned) [Example E154] | < 1000 nM | 
7 | CCOC(=O)N1CC2COc3c(cn(C)c3C(=O)Nc3ccc(F)c(C(F)F)c3)S(=O)(=O)NC2C1 (single isomer, unassigned) [Example E44, Ethyl 8-((3-(difluoromethyl)-4-fluorophenyl)carbamoyl)-7-methyl-3a,4,10,10a-tetrahydro-1H,7H-dipyrrolo[3,4-b:3′,4′-f][1,4,5]oxathiazocine-2(3H)-carboxylate 5,5-dioxide (Chiral 3aS,10aS or 3aR,10aR - Stereochemistry unknown)] |  | Anti HBV Activity (conc μM) [2]: B (0.1) (HBV inhibition less than 50% at the concentration indicated in the table)
8 | Cc1nnc(C(=O)N2CC3NS(=O)(=O)c4cn(C)c(C(=O)Nc5ccc(F)c(C)c5)c4OCC3(C)C2)o1 (single isomer, unassigned) [Example E96, N-(4-fluoro-3-methylphenyl)-7,10a-dimethyl-2-(5-methyl-1,3,4-oxadiazole-2-carbonyl)-2,3,3a,4,10,10a-hexahydro-1H,7H-dipyrrolo[3,4-b:3′,4′-f][1,4,5]oxathiazocine-8-carboxamide 5,5-dioxide (Chiral 3aS,10aS or 3aR,10aR - Stereochemistry unknown)] |  | EC50: < 1000 nM
9 | Cc1cc(NC(=O)c2c3c(cn2C)S(=O)(=O)NC2CN(C(=O)c4ncon4)CC2CO3)ccc1F (stereo not drawn) [Example E63, cis-N-(4-fluoro-3-methylphenyl)-7-methyl-2-(1,2,4-oxadiazole-3-carbonyl)-2,3,3a,4,10,10a-hexahydro-1H,7H-dipyrrolo[3,4-b:3′,4′-f][1,4,5]oxathiazocine-8-carboxamide 5,5-dioxide] | < 1000 nM | 
10 | Cc1cc(NC(=O)c2c3c(cn2C)S(=O)(=O)NC2CN(C(=O)C4(C)COC4)CCC2CO3)ccc1F (racemic) [Example E136, Cis-N-(4-fluoro-3-methylphenyl)-2-methyl-7-(3-methyloxetane-3-carbonyl)-5,5a,6,7,8,9,9a,10-octahydro-2H-pyrido[3,4-f]pyrrolo[3,4-b][1,4,5]oxathiazocine-1-carboxamide 4,4-dioxide] | < 1000 nM | 
11 | Cc1nnc(C(=O)N2C[C@H]3CSc4c(cn(C)c4C(=O)Nc4ccc(F)c(C)c4)S(=O)(=O)N[C@H]3C2)o1 [Example E124, (3aR,10aR)—N-(4-fluoro-3-methylphenyl)-7-methyl-2-(5-methyl-1,3,4-oxadiazole-2-carbonyl)-2,3,3a,4,10,10a-hexahydro-1H,7H-dipyrrolo[3,4-c:3′,4′-g][1,6,2]dithiazocine-8-carboxamide 5,5-dioxide] | < 1000 nM | 
12 | Cc1nnc(C(=O)N2C[C@H]3COc4c(cn(C)c4C(=O)Nc4ccc(F)c(C)c4)S(=O)(=O)N[C@@H]3C2)o1 (single isomer, unassigned) [Example E153] | < 1000 nM | 
13 | Cn1cc2c(c1C(=O)Nc1cc(F)c(F)c(F)c1)OCC1CNCC1NS2(=O)=O (racemic) [Example E11, cis-7-methyl-N-(3,4,5-trifluorophenyl)-2,3,3a,4,10,10a-hexahydro-1H,7H-dipyrrolo[3,4-b:3′,4′-f][1,4,5]oxathiazocine-8-carboxamide 5,5-dioxide] | < 1000 nM | inhibition at 0.1 µM [1]: > 50%
14 | CCOC(=O)N1C[C@H]2C[C@@H]1COc1c(cn(C)c1C(=O)Nc1cc(F)c(F)c(F)c1)S(=O)(=O)N2 [Example E77, Ethyl (3R,6R)-10-methyl-9-((3,4,5-trifluorophenyl)carbamoyl)-3,4,6,7-tetrahydro-10H-3,6-methanopyrrolo[3,4-b][1,4,5,8]oxathiadiazecine-5(2H)-carboxylate 1,1-dioxide] | < 1000 nM | 
15 | Cc1cc(NC(=O)c2c3c(cn2C)S(=O)(=O)N[C@H]2CN(C(=O)[C@@H]4CCCO4)C[C@H]2CO3)ccc1F [Example E101, (3aR,10aR)—N-(4-fluoro-3-methylphenyl)-7-methyl-2-((S)-tetrahydrofuran-2-carbonyl)-2,3,3a,4,10,10a-hexahydro-1H,7H-dipyrrolo[3,4-b:3′,4′-f][1,4,5]oxathiazocine-8-carboxamide 5,5-dioxide] | < 1000 nM | 
16 | Cc1cc(NC(=O)c2c3c(cn2C)S(=O)(=O)NC2CCN(C(=O)C4(C)CCCO4)CC2CO3)ccc1F (racemic) [Example E132, Trans-N-(4-fluoro-3-methylphenyl)-2-methyl-8-(2-methyltetrahydrofuran-2-carbonyl)-5,5a,6,7,8,9,9a,10-octahydro-2H-pyrido[4,3-f]pyrrolo[3,4-b][1,4,5]oxathiazocine-1-carboxamide 4,4-dioxide] |  | EC50: < 1000 nM
17 | Cc1nnc(C(=O)N2CC[C@H]3COc4c(cn(C)c4C(=O)Nc4ccc(F)c(C)c4)S(=O)(=O)N[C@@H]3C2)o1 (relative stereo) [Example E140, Trans-N-(4-fluoro-3-methylphenyl)-2-methyl-7-(5-methyl-1,3,4-oxadiazole-2-carbonyl)-5,5a,6,7,8,9,9a,10-octahydro-2H-pyrido[3,4-f]pyrrolo[3,4-b][1,4,5]oxathiazocine-1-carboxamide 4,4-dioxide] | < 1000 nM | 
18 | CCOC(=O)N1CC2CNc3c(cn(C)c3C(=O)Nc3ccc(F)c(C)c3)S(=O)(=O)NC2C1 (stereo not drawn) [Example E157, Cis Ethyl 8-((4-fluoro-3-methylphenyl)carbamoyl)-7-methyl-3a,4,7,9,10,10a-hexahydro-1H-dipyrrolo[3,4-c:3′,4′-g][1,2,6]thiadiazocine-2(3H)-carboxylate 5,5-dioxide] | > 1000 nM | 
19 | Cc1cc(NC(=O)c2c3c(cn2C)S(=O)(=O)NC2CN(C(=O)C45CC(CO4)C5)CC2CO3)ccc1F (stereo not drawn) [Example E150, Trans-2-(2-oxabicyclo[2.1.1]hexane-1-carbonyl)-N-(4-fluoro-3-methylphenyl)-7-methyl-2,3,3a,4,10,10a-hexahydro-1H,7H-dipyrrolo[3,4-b:3′,4′-f][1,4,5]oxathiazocine-8-carboxamide 5,5-dioxide] | < 1000 nM | 
20 | CCOC(=O)N1C[C@H]2CSc3c(cn(C)c3C(=O)Nc3ccc(F)c(C)c3)S(=O)(=O)N[C@H]2C1 [Example E121, Ethyl (3aR,10aR)-8-((4-fluoro-3-methylphenyl)carbamoyl)-7-methyl-3a,4,10,10a-tetrahydro-1H,7H-dipyrrolo[3,4-c:3′,4′-g][1,6,2]dithiazocine-2(3H)-carboxylate 5,5-dioxide] | < 1000 nM | 
21 | Cc1cc(NC(=O)c2c3c(cn2C)S(=O)(=O)NC2CCN(C(=O)C45CC(CO4)C5)CC2CO3)ccc1F (racemic) [Example E128, Cis-8-(2-oxabicyclo[2.1.1]hexane-1-carbonyl)-N-(4-fluoro-3-methylphenyl)-2-methyl-5,5a,6,7,8,9,9a,10-octahydro-2H-pyrido[4,3-f]pyrrolo[3,4-b][1,4,5]oxathiazocine-1-carboxamide 4,4-dioxide] | < 1000 nM | 
22 | Cn1cc2c(c1C(=O)Nc1cc(F)c(F)c(F)c1)OCC1CN(S(C)(=O)=O)CC1NS2(=O)=O (racemic) [Example E19, cis-7-methyl-2-(methylsulfonyl)-N-(3,4,5-trifluorophenyl)-2,3,3a,4,10,10a-hexahydro-1H,7H-dipyrrolo[3,4-b:3′,4′-f][1,4,5]oxathiazocine-8-carboxamide 5,5-dioxide] | < 1000 nM | inhibition at 0.1 µM [1]: > 50%
23 | CCOC(=O)N1CC2CCOc3c(cn(C)c3C(=O)Nc3cc(F)c(F)c(F)c3)S(=O)(=O)NC2C1 (mixture of isomers) [Example E156, Cis/Trans Ethyl 7-methyl-8-((3,4,5-trifluorophenyl)carbamoyl)-1,3a,4,10,11,11a-hexahydro-7H-dipyrrolo[3,4-b:3′,4′-f][1,4,5]oxathiazocine-2(3H)-carboxylate 5,5-dioxide] | < 1000 nM | 
